{"source": "patent US8232377B2", "about": "“Method for high-level secretory production of protein” (priority 2006, dated 2012)", "key": {"O. minuta YY1 strains": {"test_system": "O. minuta YY1 strains", "test": "Evaluation of PMT inhibitor (5a): antibody production by O. minuta YY1, Western analysis and TR-FRET quantification", "assay_type": "cell-based, Ogataea minuta", "settings": "1 μm, plus 0.02 μM as OD600 increased by 1, 27° C.", "experimental": "20 mM Tris-HCl buffer (pH 7.2) comprising 12 μl of 0.97 μg/ml LANCE Eu-W1024 labeled anti-human IgG (PerkinElmer), 8.3 ug/ml of biotin-conjugated mouse anti-human IgG (BD Bioscience), 16.7 ug/ml Surelight APC streptavidin (PerkinElmer), and 10% of Block Ace (Dainippon Pharmaceutical) was applied to a 96-well half area plate (Corning), and 2 μl of a sample solution prepared by adequately diluting the culture solution prepared in (2) above with 20 mM Tris-HCl buffer (pH 7.2) containing 10% of Block Ace was introduced therein, followed by agitation. The sample solution was subjected to the reaction at room temperature in the dark for 1 hour, and fluorescence was then assayed using EnVision (PerkinElmer). The amount of aggregate antibodies produced was determined based on the value at 665 nm/615 nm. Antibodies produced in animal cells (CHO) were used as standard samples. […] However, similar effects of production could be expected even via introduction of the HAC1 gene derived from a species different from a host.\nA platinum loopful of the O. minuta YY1 strains into which antibody genes had been introduced was inoculated into 5 ml of B2YP4G medium, cultured at 27° C. for 1 day, and diluted with B2YP4G medium to adjust OD600 at 10. […]"}, "[1]": {"test_system": "O. minuta AA2omH, AA2 ppH, AA2scH and AA2Hy strains", "test": "Antibody production by O. minuta strains with HAC1 gene introduced using PMT inhibitor (1c), TR-FRET quantification", "assay_type": "cell-based, Ogataea minuta", "settings": "2 μM, plus 0.04 μM as OD600 increased by 1; 27° C., 3 days; HAC1 strains compared with control AA2Hy strain (FIG. 11)", "experimental": "(§1) 20 mM Tris-HCl buffer (pH 7.2) comprising 12 μl of 0.97 μg/ml LANCE Eu-W1024 labeled anti-human IgG (PerkinElmer), 8.3 ug/ml of biotin-conjugated mouse anti-human IgG (BD Bioscience), 16.7 ug/ml Surelight APC streptavidin (PerkinElmer), and 10% of Block Ace (Dainippon Pharmaceutical) was applied to a 96-well half area plate (Corning), and 2 μl of a sample solution prepared by adequately diluting the culture solution prepared in (2) above with 20 mM Tris-HCl buffer (pH 7.2) containing 10% of Block Ace was introduced therein, followed by agitation. The sample solution was subjected to the reaction at room temperature in the dark for 1 hour, and fluorescence was then assayed using EnVision (PerkinElmer). The amount of aggregate antibodies produced was determined based on the value at 665 nm/615 nm. Antibodies produced in animal cells (CHO) were used as standard samples. […]\nA platinum loopful of the O. minuta AA2omH strain, the O. minuta AA2 ppH strain, the O. minuta AA2scH strain, and the O. minuta AA2Hy strain was inoculated into 5 ml of B2YP4G medium, cultured at 27° C. for 1 day, and then diluted with B2YP4G medium to adjust OD600 at 10. […] A culture supernatant was prepared from the culture solution, and the amount of antibody production was measured by the method described in Example 21 (3)."}, "[2]": {"test_system": "O. minuta YY3P4omH strain", "test": "Antibody production by PMT4-inactivated, HAC1-introduced O. minuta using PMT inhibitor (1c), TR-FRET quantification", "assay_type": "cell-based, Ogataea minuta", "settings": "stock solution 10 mM; 27° C., 3 days (FIG. 18)", "experimental": "as §1\n(§2) A platinum loopful of antibody-producing strains with an insertionally inactivated PMT gene and with the HAC1 gene introduced therein prepared in Example 25 (1) was inoculated into 5 ml of B2YP4G medium, cultured at 27° C. for 1 day, and diluted with B2YP4G medium to adjust OD600 to 10. […] Culture was conducted at 27° C. for an additional 3 days, OD600 was measured every 24 hours, and PMT inhibitors (1c) were added in amounts of 0.00032 μM, 0.0016 μM, 0.008 μM, and 0.04 μM, respectively, as the OD600 value increased by 1. […]"}, "[3]": {"test_system": "O. minuta AK3RH and O. minuta AK3AHy", "test": "Antibody production by transformed O. minuta with PMT inhibitor added, Western analysis of culture supernatant", "assay_type": "cell-based, Ogataea minuta", "settings": "Western analysis (FIG. 6)", "experimental": "O. minuta AK3RH and O. minuta AK3AHy were cultured in BYPG medium (1% yeast extract (Difco), 2% polypeptone (Difco), 0.5% glycerol, and 0.1M phosphate buffer (pH 6.0)) for 2 days, and these strain were cultured in BYPM media [1% yeast extract (Difco), 2% polypeptone (Difco), 1.5% methanol, and 0.1M phosphate buffer (pH 6.0)] to which 0 μM, 1 μM, 5 μM, 10 μM, 20 μM, and 50 μM PMT inhibitors (the rhodanine-3-acetic acid derivative: 5-[[3,4-(1-phenylmethoxy)phenyl]methylene]-4-oxo-2-thioxo-3-thiazolidineacetic acid (compound (1c) described in Bioorganic & Medicinal Chemistry Letters, Vol. 14, p. 3975, 2004)) had been added at 28° C. for 2 days. A culture supernatant was prepared from the culture solution and subjected to SDS-PAGE. Thereafter, the separated protein was blotted on a PVDF membrane, and Western analysis was carried out using a labeled anti-human antibody (anti-human Fc antibody). […] The adequate concentration of the PMT inhibitor to be added was 5 μM. In such a case, the amount of antibody secretion and the percentage of aggregate formation were increased."}, "[4]": {"test_system": "O. minuta YY3P2omH strain", "test": "Antibody production by PMT2-inactivated, HAC1-introduced O. minuta using PMT inhibitor (1c), TR-FRET quantification", "assay_type": "cell-based, Ogataea minuta", "settings": "stock solution 2.5 mM; 27° C., 3 days (FIG. 18)", "experimental": "as §1, §2"}, "[5]": {"test_system": "S. cerevisiae T2K01, T2K02, T2K03 and T2K04 strains", "test": "Antibody productivity of transformed S. cerevisiae with PMT inhibitor added, sandwich ELISA", "assay_type": "cell-based, Saccharomyces cerevisiae", "settings": "10 μM PMT inhibitor in YPAD medium, 30° C., 3 days (FIG. 8B)", "experimental": "The S. cerevisiae T2K01, S. cerevisiae T2K02, S. cerevisiae T2K03, and S. cerevisiae T2K04 strains prepared in Example 14 were cultured using ST medium at 30° C. for 3 days. The culture solution was inoculated into YPAD medium to result in a final concentration of 5% therein, and culture was conducted at 30° C. for 3 days. A culture supernatant was prepared from the culture solution, and the resultant was designated as a sample containing antibodies secreted and produced by yeast. The secreted and produced antibodies were subjected to quantitative assay via sandwich ELISA. TRAIL receptor proteins that were antigens of the anti-TRAIL receptor antibodies were adsorbed on a 96-well plate, a yeast sample was added, and detection was carried out using a peroxidase-labeled human IgG specific Fc antibody (Peroxidase-labeled affinity purified antibody to human IgG (Fc) (KPL)) and the ABTS peroxidase substrate (KPL). Antibodies produced in animal cells (NS0) were used as standard samples.\nThe S. cerevisiae T2K01, S. cerevisiae T2K02, S. cerevisiae T2K03, and S. cerevisiae T2K04 strains prepared in Example 14 were cultured using ST medium at 30° C. for 3 days. […]"}}}
{"molecule": "CC(Oc1cc(/C=C2\\SC(=S)N(CC(=O)O)C2=O)ccc1OCCc1ccccc1)c1ccccc1", "note": "(stereo not drawn) [PMT inhibitor (5a), {(5Z)-4-oxo-5-[3-(1-phenylethoxy)-4-(2-phenylethoxy)benzylidene]-2-thioxo-1,3-thiazolidin-3-yl}acetic acid]", "values": [{"measurement": "effects compared with PMT inhibitor (1c)", "setting": "O. minuta YY1 strains; 3 days", "value": "effects equivalent to those of the PMT inhibitor (1c)"}, {"measurement": "productivity of antibody aggregates", "setting": "O. minuta YY1 strains; 3 days (FIG. 19, FIG. 20)", "value": "tend to increase"}]}
{"molecule": "5-[[3,4-(1-phenylmethoxy)phenyl]methylene]-4-oxo-2-thioxo-3-thiazolidineacetic acid [PMT inhibitor (1c)]", "values": [{"measurement": "effects of accelerating antibody secretion", "setting": "[1]", "value": "more significant effects of accelerating antibody secretion"}, {"measurement": "PMT inhibitor amount added as the OD600 value increased by 1 giving the highest antibody productivity", "setting": "[2]", "value": "approximately 0.04 μM"}, {"measurement": "adequate concentration of the PMT inhibitor to be added", "setting": "[3]; 0, 1, 5, 10, 20 and 50 μM tested in BYPM medium, 28° C., 2 days", "value": 5, "unit": "µM"}, {"measurement": "amount of antibody secretion", "setting": "[3]; PMT inhibitor at 5 μM", "value": "increased"}, {"measurement": "percentage of aggregate formation", "setting": "[3]; PMT inhibitor at 5 μM", "value": "increased"}, {"measurement": "PMT inhibitor amount added as the OD600 value increased by 1 giving the highest antibody productivity", "setting": "[4]", "value": "approximately 0.008 μM"}, {"measurement": "synergistic effects of coexpression of the activated HAC1 gene and the RRBP1 gene on antibody production", "setting": "[5]", "value": "further enhanced"}]}
